Values after ≈ are worked out from the molar mass of the structure shown.
Test system: Candida albicans
Assay: Minimum inhibitory concentration (MIC)
Assay type: cell-based

## C[C@@H]1[C@H](O)[C@@H](C)/C=C/C=C/C=C/C=C/C=C/C=C/C=C/[C@H](O[C@@H]2O[C@H](C)[C@@H](O)[C@H](N)[C@@H]2O)C[C@@H]2O[C@](O)(C[C@@H](O)C[C@@H](O)[C@H](O)CC[C@@H](O)C[C@@H](O)CC(=O)O[C@H]1C)C[C@H](O)[C@H]2C(=O)O [AmB, amphotericin B]
  minimum inhibitory concentration (MIC): 0.25 µg/mL (≈ 0.271 µM)

Source: patent publication US11389407B2, “Cochleates and methods of using the same to enhance tissue penetration of pharmacologically active agent” (priority 2015, dated 2022)
